Assay results published in ChEMBL document CHEMBL5523701, “Structure-based discovery of small molecule inhibitors of FKBP51-Hsp90 protein-protein interaction” (Eur J Med Chem, 2024).

Assays:
[1] = target: T1, DnaJ homolog subfamily C member 7 (Homo sapiens, UniProt Q99615); experiment: Inhibition of GST-tagged human DNAJC7 expressed in Escherichia coli BL21 (DE3) using NH2-EDASRMEEVD-COOH peptide as substrate preincubated for 15 mins followed by substrate addition measured after 15 mins by Alpha Screen assay
T1 sequence (Q99615 whole entry): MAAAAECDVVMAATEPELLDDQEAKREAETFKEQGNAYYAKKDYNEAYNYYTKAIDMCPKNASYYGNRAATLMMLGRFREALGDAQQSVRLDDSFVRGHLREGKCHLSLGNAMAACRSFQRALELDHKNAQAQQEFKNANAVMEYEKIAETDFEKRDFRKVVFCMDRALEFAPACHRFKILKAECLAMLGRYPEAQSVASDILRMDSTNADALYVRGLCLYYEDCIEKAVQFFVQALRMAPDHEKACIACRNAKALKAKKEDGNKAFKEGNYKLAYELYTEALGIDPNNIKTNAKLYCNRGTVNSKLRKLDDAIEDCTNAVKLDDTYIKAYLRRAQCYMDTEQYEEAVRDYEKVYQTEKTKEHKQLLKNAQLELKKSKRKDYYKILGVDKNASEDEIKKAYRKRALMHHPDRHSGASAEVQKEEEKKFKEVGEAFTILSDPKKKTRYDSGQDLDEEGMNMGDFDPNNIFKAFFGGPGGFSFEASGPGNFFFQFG

[2] = target: T2, Serine/threonine-protein phosphatase 5 (Homo sapiens, UniProt P53041); experiment: Inhibition of GST-tagged human PP5 expressed in Escherichia coli BL21 (DE3) using NH2-EDASRMEEVD-COOH peptide as substrate preincubated for 15 mins followed by substrate addition measured after 15 mins by Alpha Screen assay
T2 sequence (P53041 whole entry): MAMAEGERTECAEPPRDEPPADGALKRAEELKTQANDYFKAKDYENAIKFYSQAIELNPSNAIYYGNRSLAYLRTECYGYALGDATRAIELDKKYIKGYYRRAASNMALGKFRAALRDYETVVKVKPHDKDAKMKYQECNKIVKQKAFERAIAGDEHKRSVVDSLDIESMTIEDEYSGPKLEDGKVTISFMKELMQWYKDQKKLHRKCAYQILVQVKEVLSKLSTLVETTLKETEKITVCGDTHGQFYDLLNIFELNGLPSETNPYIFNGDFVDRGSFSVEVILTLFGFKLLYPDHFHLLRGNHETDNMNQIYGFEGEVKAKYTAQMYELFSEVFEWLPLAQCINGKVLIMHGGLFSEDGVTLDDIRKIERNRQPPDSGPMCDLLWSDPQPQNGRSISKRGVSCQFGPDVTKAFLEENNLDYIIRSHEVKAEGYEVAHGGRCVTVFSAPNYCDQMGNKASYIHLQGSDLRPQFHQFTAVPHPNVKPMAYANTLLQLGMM

[3] = target: Peptidyl-prolyl cis-trans isomerase FKBP8 (Homo sapiens, UniProt Q14318); experiment: Inhibition of GST-tagged human FKBP38 expressed in Escherichia coli BL21 (DE3) using NH2-EDASRMEEVD-COOH peptide as substrate preincubated for 15 mins followed by substrate addition measured after 15 mins by Alpha Screen assay
[4] = target: T3, Peptidyl-prolyl cis-trans isomerase FKBP4 (Homo sapiens, UniProt Q02790); experiment: Inhibition of GST-tagged human FKBP52 expressed in Escherichia coli BL21 (DE3) using NH2-EDASRMEEVD-COOH peptide as substrate preincubated for 15 mins followed by substrate addition measured after 15 mins by Alpha Screen assay
T3 sequence (Q02790 whole entry): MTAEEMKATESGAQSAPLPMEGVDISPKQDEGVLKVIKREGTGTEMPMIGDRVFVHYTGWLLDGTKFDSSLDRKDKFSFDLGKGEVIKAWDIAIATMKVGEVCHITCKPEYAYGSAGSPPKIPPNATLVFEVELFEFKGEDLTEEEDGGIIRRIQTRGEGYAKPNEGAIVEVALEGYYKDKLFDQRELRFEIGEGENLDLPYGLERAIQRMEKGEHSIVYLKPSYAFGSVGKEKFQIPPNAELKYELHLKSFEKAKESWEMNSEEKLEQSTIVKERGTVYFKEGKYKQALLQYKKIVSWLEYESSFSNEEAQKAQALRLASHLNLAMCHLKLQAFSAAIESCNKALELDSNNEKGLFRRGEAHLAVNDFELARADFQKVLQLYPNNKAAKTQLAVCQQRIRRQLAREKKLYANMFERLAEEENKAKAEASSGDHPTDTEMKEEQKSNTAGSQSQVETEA

[5] = target: T4, Mitochondrial import receptor subunit TOM34 (Homo sapiens, UniProt Q15785); experiment: Inhibition of GST-tagged human TOM34 expressed in Escherichia coli BL21 (DE3) using NH2-EDASRMEEVD-COOH peptide as substrate preincubated for 15 mins followed by substrate addition measured after 15 mins by Alpha Screen assay
T4 sequence (Q15785 whole entry): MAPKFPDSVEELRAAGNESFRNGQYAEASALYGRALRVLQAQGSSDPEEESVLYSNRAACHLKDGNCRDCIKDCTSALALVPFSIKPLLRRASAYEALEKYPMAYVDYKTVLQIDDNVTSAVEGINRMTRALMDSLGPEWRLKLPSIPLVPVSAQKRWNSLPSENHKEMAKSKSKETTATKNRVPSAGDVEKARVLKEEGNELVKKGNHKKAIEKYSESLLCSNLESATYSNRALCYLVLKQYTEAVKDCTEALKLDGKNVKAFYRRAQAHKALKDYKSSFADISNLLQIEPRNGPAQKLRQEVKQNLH

[6] = target: Small glutamine-rich tetratricopeptide repeat-containing protein alpha (Homo sapiens, UniProt O43765); experiment: Inhibition of GST-tagged human SGTA expressed in Escherichia coli BL21 (DE3) using NH2-EDASRMEEVD-COOH peptide as substrate preincubated for 15 mins followed by substrate addition measured after 15 mins by Alpha Screen assay
[7] = target: Stress-induced-phosphoprotein 1 (Homo sapiens, UniProt P31948); experiment: Inhibition of GST-tagged human HOP expressed in Escherichia coli BL21 (DE3) using NH2-EDASRMEEVD-COOH peptide as substrate preincubated for 15 mins followed by substrate addition measured after 15 mins by Alpha Screen assay
Sequence of Stress-induced-phosphoprotein 1 (P31948 whole entry): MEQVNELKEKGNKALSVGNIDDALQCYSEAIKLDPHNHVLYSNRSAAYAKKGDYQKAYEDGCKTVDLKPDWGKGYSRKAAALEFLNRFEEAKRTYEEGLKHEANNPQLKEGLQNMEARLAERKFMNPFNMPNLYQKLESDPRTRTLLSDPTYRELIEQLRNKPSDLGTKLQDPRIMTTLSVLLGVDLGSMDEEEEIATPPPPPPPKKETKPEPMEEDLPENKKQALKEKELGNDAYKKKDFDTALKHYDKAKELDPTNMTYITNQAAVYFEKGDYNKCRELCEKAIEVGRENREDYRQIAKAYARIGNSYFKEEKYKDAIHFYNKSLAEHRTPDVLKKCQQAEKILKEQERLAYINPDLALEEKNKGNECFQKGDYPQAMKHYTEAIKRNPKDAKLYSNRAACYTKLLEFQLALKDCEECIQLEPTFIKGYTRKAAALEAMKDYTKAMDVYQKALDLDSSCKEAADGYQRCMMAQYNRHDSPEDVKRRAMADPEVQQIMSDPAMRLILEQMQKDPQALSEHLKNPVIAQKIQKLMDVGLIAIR

Sequence of Peptidyl-prolyl cis-trans isomerase FKBP8 (Q14318 whole entry): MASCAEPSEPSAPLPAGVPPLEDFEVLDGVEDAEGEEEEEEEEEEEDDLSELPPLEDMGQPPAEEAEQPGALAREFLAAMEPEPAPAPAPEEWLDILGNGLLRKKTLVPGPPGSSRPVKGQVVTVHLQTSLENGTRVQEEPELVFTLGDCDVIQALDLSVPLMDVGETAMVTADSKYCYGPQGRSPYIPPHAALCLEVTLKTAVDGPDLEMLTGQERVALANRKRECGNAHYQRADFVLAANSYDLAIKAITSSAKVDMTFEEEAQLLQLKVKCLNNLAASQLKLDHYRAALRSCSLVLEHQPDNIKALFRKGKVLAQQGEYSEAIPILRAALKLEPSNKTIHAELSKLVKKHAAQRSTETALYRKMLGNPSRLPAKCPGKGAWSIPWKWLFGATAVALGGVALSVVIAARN
Sequence of Small glutamine-rich tetratricopeptide repeat-containing protein alpha (O43765 whole entry): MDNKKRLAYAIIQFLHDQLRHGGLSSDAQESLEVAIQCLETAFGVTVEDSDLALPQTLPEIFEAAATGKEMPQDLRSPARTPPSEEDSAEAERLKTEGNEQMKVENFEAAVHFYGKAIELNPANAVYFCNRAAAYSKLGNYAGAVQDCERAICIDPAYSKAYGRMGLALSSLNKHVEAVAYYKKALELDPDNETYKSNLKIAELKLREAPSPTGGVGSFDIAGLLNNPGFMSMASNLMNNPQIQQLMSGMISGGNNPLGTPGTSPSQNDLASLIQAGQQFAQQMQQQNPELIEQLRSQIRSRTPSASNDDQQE

Row | IC50 [1] [µM] | IC50 [2] [µM] | IC50 [3] [µM] | IC50 [4] [µM] | IC50 [5] [µM] | IC50 [6] [µM] | IC50 [7] [µM] | SMILES
1 | 4 | 2.5 | 2.5 | 3 | 4 | 6 | 5 | COC(=O)c1c(NC(=O)CSc2nnc(-c3ccco3)c(-c3ccco3)n2)sc(C)c1C
2 | 2 | 2 | 4 | 5 | 3 | 2 | 10 | Cc1sc(NC(=O)CCCC(=O)Nc2sc(C)c(C)c2C(N)=O)c(C(N)=O)c1C
